Read-outs that look alike come from different tables or passages of the source. Each block holds one compound with its values, some of them ahead of it.
Tests used:
OATP-1B3 = molecular target: T1, OATP-1B3 (Homo sapiens, UniProt Q9NPD5); assay: Inhibition of [3H]CCK-8 cellular accumulation in OATP-1B3 transfected CHO cells; assay type: cell-based; conditions: for Inhibition of cellular accumulation of [3H]CCK-8 (in words): 25 and 50 μM, OATP-1B3 transfected cells; for Inhibition in net uptake rate of [3H]CCK-8 in OATP-1B3 cells (in words): increasing concentrations 0.1-100 μM
T1 sequence (Q9NPD5 1-702): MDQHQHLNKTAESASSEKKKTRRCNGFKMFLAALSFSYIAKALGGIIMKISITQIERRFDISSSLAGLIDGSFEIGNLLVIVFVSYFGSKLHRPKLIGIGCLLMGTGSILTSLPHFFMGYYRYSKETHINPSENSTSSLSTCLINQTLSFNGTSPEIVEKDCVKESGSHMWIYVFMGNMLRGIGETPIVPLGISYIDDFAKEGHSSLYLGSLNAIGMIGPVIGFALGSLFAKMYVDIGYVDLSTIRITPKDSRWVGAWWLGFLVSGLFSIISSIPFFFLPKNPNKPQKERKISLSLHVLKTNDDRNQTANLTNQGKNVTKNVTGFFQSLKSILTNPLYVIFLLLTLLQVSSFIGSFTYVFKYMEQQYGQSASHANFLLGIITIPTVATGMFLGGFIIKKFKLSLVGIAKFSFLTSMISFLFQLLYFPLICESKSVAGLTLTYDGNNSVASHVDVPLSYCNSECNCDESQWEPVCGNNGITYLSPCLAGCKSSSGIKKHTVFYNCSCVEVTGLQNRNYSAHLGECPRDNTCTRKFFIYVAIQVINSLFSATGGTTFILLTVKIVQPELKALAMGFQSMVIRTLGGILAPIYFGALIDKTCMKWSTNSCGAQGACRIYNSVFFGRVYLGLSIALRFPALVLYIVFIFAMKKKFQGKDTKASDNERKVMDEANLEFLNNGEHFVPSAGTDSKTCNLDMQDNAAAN

OATP-1B1 [1] = molecular target: T2, OATP-1B1 (Homo sapiens, UniProt Q9Y6L6); conditions: for Inhibition of cellular accumulation of [3H]ES (in words) / Diminished uptake of [3H]ES: 25 and 50 μM; for Diminished uptake of [3H]ES: p < 0.05
T2 sequence (Q9Y6L6 1-691): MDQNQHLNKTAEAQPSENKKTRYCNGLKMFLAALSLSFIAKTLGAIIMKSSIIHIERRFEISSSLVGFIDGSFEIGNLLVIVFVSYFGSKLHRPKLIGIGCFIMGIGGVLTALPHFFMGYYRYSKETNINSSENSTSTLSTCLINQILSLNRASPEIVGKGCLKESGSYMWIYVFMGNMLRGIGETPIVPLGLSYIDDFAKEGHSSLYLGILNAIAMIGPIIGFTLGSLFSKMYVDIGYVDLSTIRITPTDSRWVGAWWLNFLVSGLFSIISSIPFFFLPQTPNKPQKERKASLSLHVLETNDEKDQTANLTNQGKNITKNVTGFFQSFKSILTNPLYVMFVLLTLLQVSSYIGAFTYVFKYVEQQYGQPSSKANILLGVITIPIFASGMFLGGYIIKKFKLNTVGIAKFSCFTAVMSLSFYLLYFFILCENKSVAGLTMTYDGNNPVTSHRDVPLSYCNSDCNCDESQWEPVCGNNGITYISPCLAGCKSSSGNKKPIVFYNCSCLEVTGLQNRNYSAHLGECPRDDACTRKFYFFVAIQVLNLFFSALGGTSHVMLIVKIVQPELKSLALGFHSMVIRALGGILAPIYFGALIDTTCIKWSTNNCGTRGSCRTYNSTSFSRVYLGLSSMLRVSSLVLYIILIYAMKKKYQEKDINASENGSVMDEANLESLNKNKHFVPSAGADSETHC

[2] = system: OATP-1B1 transfected CHO cells
[3] = system: OATP-1B3 transfected CHO cells; assay type: cell-based, Chinese hamster
OATP-1B1 [4] = conditions: 10 μM, Flp-In T-Rex293 cells expressing OATP-1B1; ref Hu et al. [24]; cited from earlier work
[5] = coadministration together with CsA; ref [16], [34], [35]; cited from earlier work
[6] = coadministration of pazopanib; ref Tan et al. [41]; cited from earlier work
[7] = 100 μM, 24 h, OATP-1B1 transfected cells, relative to positive control Triton X
[8] = 100 μM, 24 h, OATP-1B3 transfected cells, relative to positive control Triton X

Structure (SMILES): CC(C)c1nc(N(C)S(C)(=O)=O)nc(-c2ccc(F)cc2)c1/C=C/[C@@H](O)C[C@@H](O)CC(=O)O [rosuvastatin]
- Increased AUC of statin [5]: 7.08 fold

Structure (SMILES): Cc1cn(-c2cc(NC(=O)c3ccc(C)c(Nc4nccc(-c5cccnc5)n4)c3)cc(C(F)(F)F)c2)cn1 [Nilotinib, nilotinib]
- Inhibition of cellular accumulation of [3H]CCK-8 (in words) (OATP-1B3): did not show any significant effect
- Inhibition in net uptake rate of [3H]CCK-8 in OATP-1B3 cells (in words) (OATP-1B3): no significant inhibition
- Inhibition of cellular accumulation of [3H]ES (in words) (OATP-1B1 [1]; OATP-1B1 transfected cells): significant inhibition
- Diminished uptake of [3H]ES (OATP-1B1 [1]; OATP-1B1 transfected cells): ~90%
- Cytotoxic effect [2, 7]: No cytotoxic effects
- Cytotoxic effect [3, 8]: No cytotoxic effects
- Inhibition of OATP-1B1 (in words) (OATP-1B1 [4]): inhibitory potency

Structure (SMILES): CC[C@H](C)C(=O)O[C@H]1C[C@H](O)C=C2C=C[C@H](C)[C@H](CC[C@@H](O)C[C@@H](O)CC(=O)O)[C@H]21 [pravastatin]
- Increased AUC of statin [5]: 9.93 fold

Structure (SMILES): CC(=O)O[C@H]1C(=O)[C@@]2(C)[C@H]([C@H](OC(=O)c3ccccc3)[C@]3(O)C[C@H](OC(=O)[C@H](O)[C@@H](NC(=O)c4ccccc4)c4ccccc4)C(C)=C1C3(C)C)[C@]1(OC(C)=O)CO[C@@H]1C[C@@H]2O [paclitaxel]
- Lower paclitaxel clearance [6]: 14%

Continued, in another order:

- IC50 (OATP-1B3): 18.1 ± 1.21 µM
- Inhibition of cellular accumulation of [3H]CCK-8 (in words) (OATP-1B3): significant inhibition
Structure (SMILES): COc1cc2c(Nc3ccc(Br)cc3F)ncnc2cc1OCC1CCN(C)CC1 [Vandetanib, vandetanib]
- Inhibition of cellular accumulation of [3H]ES (in words) (OATP-1B1 [1]; OATP-1B1 transfected cells): did not show any significant inhibitory activity
- Cytotoxic effect [2]: No cytotoxic effects
- Cytotoxic effect [3]: No cytotoxic effects
- Inhibition of OATP-1B1 (in words) (OATP-1B1 [4]): inhibitory activity

- Inhibition of cellular accumulation of [3H]CCK-8 (in words) (OATP-1B3): did not show any significant effect
- Inhibition in net uptake rate of [3H]CCK-8 in OATP-1B3 cells (in words) (OATP-1B3): no significant inhibition
Structure (SMILES): C#Cc1cccc(Nc2ncnc3cc(OCCOC)c(OCCOC)cc23)c1 [Erlotinib, erlotinib]
- Inhibition of cellular accumulation of [3H]ES (in words) (OATP-1B1 [1]; OATP-1B1 transfected cells): did not show any significant inhibitory activity
- Cytotoxic effect [2, 7]: No cytotoxic effects
- Cytotoxic effect [3, 8]: No cytotoxic effects
- Inhibition of OATP-1B1 (in words) (OATP-1B1 [4]): inhibitory activity

- Inhibition of cellular accumulation of [3H]CCK-8 (in words) (OATP-1B3): did not show any significant effect
- Inhibition in net uptake rate of [3H]CCK-8 in OATP-1B3 cells (in words) (OATP-1B3): no significant inhibition
Structure (SMILES): C=CC(=O)Nc1cc2c(Nc3ccc(F)c(Cl)c3)ncnc2cc1OCCCN1CCOCC1 [Canertinib, canertinib]
- Inhibition of cellular accumulation of [3H]ES (in words) (OATP-1B1 [1]; OATP-1B1 transfected cells): did not show any significant inhibitory activity
- Cytotoxic effect [2, 7]: No cytotoxic effects
- Cytotoxic effect [3, 8]: No cytotoxic effects

- IC50 (OATP-1B3): 3.67 ± 1.2 µM
- IC50 (OATP-1B1 [1]): 10.5 ± 1.15 µM
- Reduced uptake of [3H]ES (OATP-1B1 [1]; 50 μM, OATP-1B1 transfected cells): 70%
Structure (SMILES): CO[C@H]1/C=C/O[C@@]2(C)Oc3c(C)c(O)c4c(O)c(c(/C=N/N5CCN(C)CC5)c(O)c4c3C2=O)NC(=O)/C(C)=C\C=C\[C@H](C)[C@H](O)[C@@H](C)[C@@H](O)[C@@H](C)[C@H](OC(C)=O)[C@@H]1C [Rifampicin]

- Inhibition of cellular accumulation of [3H]CCK-8 (in words) (OATP-1B3): did not show any significant effect
- Inhibition in net uptake rate of [3H]CCK-8 in OATP-1B3 cells (in words) (OATP-1B3): no significant inhibition
- IC50 (OATP-1B1 [1]): 3.89 ± 1.21 µM
- Inhibition of cellular accumulation of [3H]ES (in words) (OATP-1B1 [1]; OATP-1B1 transfected cells): significant inhibition
- Diminished uptake of [3H]ES (OATP-1B1 [1]; OATP-1B1 transfected cells): ~90%
Structure (SMILES): Cc1ccc(Nc2nccc(N(C)c3ccc4c(C)n(C)nc4c3)n2)cc1S(N)(=O)=O [Pazopanib]
- Cytotoxic effect [2]: No cytotoxic effects
- Cytotoxic effect [3]: No cytotoxic effects
- Inhibition of OATP-1B1 (in words) (OATP-1B1 [4]): inhibitory potency

Source: publication PMC4407688 (Drug metabolism and drug interactions, 2014)
